Values quoted from earlier work, collected in patent US20140363510A1, “PHARMACEUTICAL COMPOSITION INCLUDING PIMOBENDAN” (BOEHRINGER INGELHEIM VETMEDICA GMBH, priority 2004, published 2014).

solubility in water (water): hardly dissolves in water
Structure (SMILES): COc1ccc(-c2nc3ccc(C4=NNC(=O)CC4C)cc3[nH]2)cc1 (centres unmarked) [Pimobendan, 4,5-dihydro-6-[2-(4-methoxyphenyl)-1H-benzimidazol-5-yl]-5-methyl-3(2H)-pyridazone]
solubility in aqueous media (aqueous media, pH-dependent): low solubility in aqueous media and a very highly pH-dependent solubility
